Measured values as given in PMC9963659, “Novel 2-Thiouracil-5-Sulfonamide Derivatives: Design, Synthesis, Molecular Docking, and Biological Evaluation as Antioxidants with 15-LOX Inhibition” (Molecules, 2023).
Where “and” joins values, the source holds several entries; their conditions need not be identical. Identical values can stand only once. Like-named read-outs stand apart in the source and are kept apart here.

Legend:
15-LOX-1 [1] = tested on: 15-LOX-1; set-up: method as in PMID 26560362; conditions: human; cited from earlier work
15-LOX-1 [2] = tested on: 15-LOX-1; set-up: method as in PMID 26560362; conditions: rabbit enzyme; cited from earlier work
human 15-LOX = conditions: cited from earlier work
Soybean 15-LOX enzyme = target: T1, Soybean 15-LOX enzyme (Glycine max, UniProt P08170); experiment: In vitro 15-lipoxygenase inhibition (Cayman Lipoxygenase Inhibitor Screening Assay Kit); type: biochemical; conditions: for IC50: Soybean 15-LOX, arachidonic acid substrate, mean ± SEM of three experiments
T1 construct: purchased Cayman Chemical 760700
T1 sequence (P08170 1-839): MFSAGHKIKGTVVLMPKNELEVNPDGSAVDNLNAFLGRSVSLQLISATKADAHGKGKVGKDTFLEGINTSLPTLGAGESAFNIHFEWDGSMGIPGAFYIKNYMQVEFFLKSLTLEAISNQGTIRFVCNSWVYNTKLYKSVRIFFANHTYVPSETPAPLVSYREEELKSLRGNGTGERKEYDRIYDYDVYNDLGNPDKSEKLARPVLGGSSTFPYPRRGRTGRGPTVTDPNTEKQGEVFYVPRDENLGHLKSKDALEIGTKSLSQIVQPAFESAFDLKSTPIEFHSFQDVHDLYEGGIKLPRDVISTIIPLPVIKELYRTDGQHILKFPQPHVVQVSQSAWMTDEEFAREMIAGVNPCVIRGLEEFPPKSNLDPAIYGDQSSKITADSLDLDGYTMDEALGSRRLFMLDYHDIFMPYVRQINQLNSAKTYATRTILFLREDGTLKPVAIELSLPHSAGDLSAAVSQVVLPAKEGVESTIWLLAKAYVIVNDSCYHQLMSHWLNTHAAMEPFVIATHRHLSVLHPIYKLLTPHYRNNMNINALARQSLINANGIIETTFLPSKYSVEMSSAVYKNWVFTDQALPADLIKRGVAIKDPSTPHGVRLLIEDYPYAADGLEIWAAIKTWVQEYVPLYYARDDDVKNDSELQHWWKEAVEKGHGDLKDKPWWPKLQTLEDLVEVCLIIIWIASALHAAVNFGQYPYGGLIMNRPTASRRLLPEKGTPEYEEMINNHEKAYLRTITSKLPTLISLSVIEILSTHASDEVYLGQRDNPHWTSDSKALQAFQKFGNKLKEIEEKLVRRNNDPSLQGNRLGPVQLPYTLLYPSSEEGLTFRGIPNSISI
Protocol: 90 µL of 15-LOX was pipetted into a 96-well plate quickly. The test chemical was then dissolved in DMSO in 10 µL portions at concentrations of 2.5 µM, 5.0 µM, and 10 µM and added to each well. Arachidonic acid, a 110 µL substrate, was added to start the reaction, and the plate was shaken for at least five minutes. In order to interrupt enzyme catalysis and advance the reaction, 100 µL of chromogen was added to each well and made in accordance with the manufacturer’s instructions. In blank wells, 100 µL of assay buffer (0.1 M Tris-HCl, pH 7.4) was utilized. […] The solution’s absorbance was determined at λ 490–500 nm. The percentage inhibition was calculated according to the following equation:% inhibition = [(IA − Ainhibitor sample)/IA] × 100(1) where (IA) is the 100% initial activity and (Ainhibitor sample) is the absorbance of the test sample. A dose-response curve was plotted between % inhibition and the drug concentration. The non-linear dose-response curve was used for calculating drug concentration showing 50% enzyme inhibition.

[3] = Hydrogen peroxide scavenging assay; type: biochemical; conditions: mean ± SEM of three experiments
Protocol: H2O2 assay is used to estimate the scavenging power of the target compounds (4–9) to H2O2.
The hydrogen peroxide (H2O2) scavenging activity of all novel synthesized compounds 3–9 was measured as previously reported (see Supplementary Materials).
1-Biological Evaluation Details: a-In-vitro Assays for biological antioxidant Activity […]
Linear regression analysis was performed to calculate drug concentration showing 50% free radical inhibition activity (IC50). All tests were performed in triplicates.
-Scavenging of hydrogen peroxide
In this method, the decay or loss of hydrogen peroxide can be quantified spectrophotometrically at 230 nm when a scavenger is incubated with it. The procedure was applied with a few changes. In phosphate buffered saline, hydrogen […]
peroxide (20 mM) solution was prepared in phosphate buffered saline (PBS, pH 7.4). In order to make different concentrations of 1 ml of the tested substances (3–9) or standards in methanol, 2 ml of hydrogen peroxide solution in PBS was added. After 10 minutes, the absorbance of H2O2 was measured at 230 nm in comparison to an ascorbic acid (AA) reference solution that contained phosphate buffer but no H2O2.
% of H2O2 scavenging = [(A control -A sample) / A control] x100. […]

[4] = Lipid peroxidation assay (FeCl2/H2O2-stimulated linoleic acid peroxidation); type: biochemical; conditions: mean ± SEM of three experiments
[5] = DPPH radical scavenging assay; type: biochemical; conditions: mean ± SEM of three experiments
Protocol: The antioxidant potential of all target compounds (3–9) was determined using DPPH radical scavenging assay in comparison with ascorbic acid (AA) as the control treatment.
The mechanism of antioxidants as DPPH radical scavengers is based on their hydrogen-donation ability as hydrogen atoms or an electron transfer from the compound to the DPPH to form DPPH-H. The results of DPPH reduction are presented in Table 2, Figure 7.
The DPPH scavenging activity of all novel synthesized compounds (3–9) was measured as previously described (see Supplementary Materials).
1-Biological Evaluation Details: a-In-vitro Assays for biological antioxidant Activity
- DPPH scavenging method.
A 96-well plate was filled with 100 µL of the investigated compounds at various concentrations (12.5, 25, 50, 100, and 200 µg/mL ). The plate was then incubated at room temperature for 30 min while being protected from light by adding 100 µL of 100µM DPPH methanolic solution to each well. At a λ517 nm. the solution's absorbance was measured.
The positive control was ascorbic acid, and the negative control was DMSO. According to the following equation, the percentage of DPPH scavenging activity was determined:
% of DPPH scavenging = [(A control -A sample) / A control] x100. where A control is the absorbance of the control reaction (with all reagents except the test compound), and A sample is the absorbance of the test sample. Linear regression analysis was performed to calculate drug concentration showing 50% free radical inhibition activity (IC50). All tests were performed in triplicates. […]

[6] = set-up: method as in PMID 23248677; conditions: cited from earlier work
15-LOX-1 [7] = tested on: 15-LOX-1; set-up: method as in PMID 26560362; conditions: cited from earlier work

SMILES	IC50 (Soybean 15-LOX enzyme) [nM]	H2O2 IC50 [3] [µg/mL]	melting point [°C]	Lipid Peroxidation IC50 [4] [µg/mL]	DPPH IC50 [5]	also measured
O=c1c2cnc(N3CCOCC3)nc2sn1CCN1CCCCC1 [XIX]						IC50 (15-LOX-1 [1]): 120 nM
COc1ccc(-c2cc3cc(F)c(F)cc3[nH]2)cc1NC(=S)Nc1cccc(C(=O)O)c1 [XVII]						IC50 (15-LOX-1 [2]): 2 nM
COc1ccc(-c2cc3cc(F)c(F)cc3[nH]2)cc1NS(=O)(=O)c1cccs1 [XIV]						IC50 (human 15-LOX; read-out: 15-LOX IC50): 7 nM
O=c1[nH]c(=S)[nH]cc1S(=O)(=O)Nc1cccc(-c2csc(NN=Cc3cccc(Cl)c3)n2)c1 [Compound 9b, N-(3-{2-[(2E)-2(3-chlorobenzylidene)hydrazine]-1,3-thiazol-4-yl}phenyl)-4-oxo-thioxo-1,2,3,4-tetrahydropyrimidine-5-sulfonamides]	1800 ± 60	18.0 ± 0.72	320 to 322	21.0 ± 1.45	11.9 ± 1.40 µg/mL	15-LOX inhibitory activity relative to quercetin (Soybean 15-LOX enzyme; fold that of quercetin): 2.0 fold
O=S(=O)(Nc1cccc(-c2nc3cccnc3[nH]2)c1)c1cccs1 [XVI]						IC50 (human 15-LOX; read-out: 15-LOX IC50): 10000 nM
O=C(O)c1cc(O)c(O)c(O)c1 [gallic acid]						antioxidant activity IC50 [6]: 0.8 µg/mL
c1csc(C2CSC(c3nc4ccccc4[nH]3)=N2)c1 (stereo not shown) [XVIII]						IC50 (15-LOX-1 [7]): 96 nM
N#Cc1c(-c2cccc(F)c2)cc(-c2cccc(NS(=O)(=O)c3c[nH]c(=S)[nH]c3=O)c2)[nH]c1=O [Compound 6c, N-{3-[5-cyano-4-(3-fluorophenyl)-6-oxo-1,6-dihydropyridin-2-yl]phenyl}-4-oxo-2-thioxo-1,2,3,4-tetrahydropyrimidine-5-sulfonamide]	7800 ± 20	29.0 ± 1.03	287 to 289	39.0 ± 1.46	21.7 ± 0.7 µg/mL	
CC1=C(C(=O)OC(C)C)C(c2ccco2)NC(=S)N1 (stereo not shown) [XII]						antioxidant activity IC50 [6]: 600 µg/mL
CCNC(=S)NN=C(C)c1cccc(NS(=O)(=O)c2c[nH]c(=S)[nH]c2=O)c1 [Compound 5b, N-{3-[(1E)-N-(ethylcarbamothionyl)ethanhydrazonoyl]phenyl}-4-oxo-2-thioxo-1,2,3,4-tetrahydropyrimidine-5-sulfonamide]	5700 ± 30	40.0 ± 1.32	310 to 312	85.0 ± 1.03	14.70 ± 0.22 µg/mL and 14.00 ± 0.22 µg/mL	
CC(=NNC(=S)Nc1ccc(F)cc1)c1cccc(NS(=O)(=O)c2c[nH]c(=S)[nH]c2=O)c1 [Compound 5d, N-{3-[(1E)-N-(4-fluorocarbamothionyl)ethanhydrazonoyl]phenyl}-4-oxo-2-thioxo-1,2,3,4-tetrahydropyrimidine-5-sulfonamides]	5900 ± 60	47.0 ± 1.38	313 to 315	95.0 ± 1.42	14.72 ± 1.11 µg/mL	
N#Cc1c(-c2cccc([N+](=O)[O-])c2)cc(-c2cccc(NS(=O)(=O)c3c[nH]c(=S)[nH]c3=O)c2)[nH]c1=O [Compound 6a, N-{3-[5-cyano-4-(3-nitrophenyl)-6-oxo-1,6-dihydropyridin-2-yl]phenyl}-4-oxo-2-thioxo-1,2,3,4-tetrahydropyrimidine-5-sulfonamide]	7850 ± 10	31.0 ± 1.30	266 to 268	45.0 ± 1.52	28.0 ± 1.06 µg/mL	
Cc1cccc(-c2cc(-c3cccc(NS(=O)(=O)c4c[nH]c(=S)[nH]c4=O)c3)nc(N)c2C#N)c1 [Compound 7d, N-{3-[6-amino-5-cyano-4-(3-methylphenyl)pyridine-2-yl]phenyl}-4-oxo-2-thioxo-1,2,3,4-tetrahydropyrimidine-5-sulfonamides]	6600 ± 50	23.9 ± 1.34	264 to 266	36.4 ± 1.33	17.0 ± 1.63 µg/mL	
CCCCCc1ccc(S(=O)(=O)NCCc2nc(-c3ccccc3)[nH]c2-c2ccc(OC)cc2)cc1 [XV]						IC50 (human 15-LOX; AA, read-out: 15-LOX IC50 (AA)): 50 nM; IC50 (human 15-LOX; LA, read-out: 15-LOX IC50 (LA)): 17 nM
